The supplement of paper PMC11061612

How the values were obtained:
Doxorubicin = compound: COc1cccc2c1C(=O)c1c(O)c3c(c(O)c1C2=O)C[C@@](O)(C(=O)CO)C[C@@H]3O[C@H]1C[C@H](N)[C@H](O)[C@H](C)O1 [Doxorubicin]; conditions: max 1 µM
In short: (§1)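 Cancer cell lines were dosed for 72 hours (final DMSO typically 0.2%) after 24 hours at 37°C and 5% CO2 in 1536-well plates containing 7.5 μl DMEM/F12 or RPMI with 10% FBS. Viability came from CellTiter-Glo 2.0 luminescence, scaled between blank-well and DMSO-well means, and dose responses were fitted to a two-parameter logistic curve with a non-linear mixed effects model. The single-agent IC50 was obtained from this fit.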

Paclitaxel = compound: CC(=O)O[C@H]1C(=O)[C@@]2(C)[C@H]([C@H](OC(=O)c3ccccc3)[C@]3(O)C[C@H](OC(=O)[C@H](O)[C@@H](NC(=O)c4ccccc4)c4ccccc4)C(C)=C1C3(C)C)[C@]1(OC(C)=O)CO[C@@H]1C[C@@H]2O [Paclitaxel]; conditions: max 3 µM
In short: as §1

Savolitinib = compound: C[C@@H](c1ccc2nccn2c1)n1nnc2ncc(-c3cnn(C)c3)nc21 [Savolitinib]; conditions: max 1 µM
In short: as §1

AZD0156 = compound: CN(C)CCCOc1ccc(-c2ccc3ncc4c(c3c2)n(C2CCOCC2)c(=O)n4C)cn1 [AZD0156]; conditions: max 3 µM
In short: as §1

Alisertib = compound: COc1cc(Nc2ncc3c(n2)-c2ccc(Cl)cc2C(c2c(F)cccc2OC)=NC3)ccc1C(=O)O [Alisertib]; conditions: max 10 µM
In short: as §1

AZD2811 = compound: CCN(CCO)CCCOc1ccc2c(Nc3cc(CC(=O)Nc4cccc(F)c4)[nH]n3)ncnc2c1 [AZD2811]; conditions: max 1 µM
In short: as §1

Taselisib = compound: Cc1nc(-c2cn3c(n2)-c2ccc(-c4cnn(C(C)(C)C(N)=O)c4)cc2OCC3)n(C(C)C)n1 [Taselisib]; conditions: max 10 µM
In short: as §1

SN-38 = compound: CCc1c2c(nc3ccc(O)cc13)-c1cc3c(c(=O)n1C2)COC(=O)[C@]3(O)CC [SN-38]; conditions: max 0.3 µM
In short: as §1

Carboplatin = compound: C1CC(C1)(C(=O)[O-])C(=O)[O-].N.N.[Pt+2] [Carboplatin]; conditions: max 10 µM
In short: as §1

Etoposide = compound: COc1cc([C@@H]2c3cc4c(cc3[C@@H](O[C@@H]3O[C@@H]5CO[C@@H](C)O[C@H]5[C@H](O)[C@H]3O)[C@H]3COC(=O)[C@H]23)OCO4)cc(OC)c1O [Etoposide]; conditions: max 10 µM
In short: as §1

AZD6738 = compound: C[C@@H]1COCCN1C2=NC(=NC(=C2)C3(CC3)[S@](=N)(=O)C)C4=C5C=CNC5=NC=C4 [AZD6738]; conditions: max 10 µM
In short: as §1

5-Fluorouracil = compound: O=c1[nH]cc(F)c(=O)[nH]1 [5-Fluorouracil]; conditions: max 20 µM
In short: as §1

Venetoclax = compound: CC1(C)CCC(CN2CCN(c3ccc(C(=O)NS(=O)(=O)c4ccc(NCC5CCOCC5)c([N+](=O)[O-])c4)c(Oc4cnc5[nH]ccc5c4)c3)CC2)=C(c2ccc(Cl)cc2)C1 [Venetoclax]; conditions: max 1 µM
In short: as §1

Gefitinib = compound: COc1cc2ncnc(Nc3ccc(F)c(Cl)c3)c2cc1OCCCN1CCOCC1 [Gefitinib]; conditions: max 10 µM
In short: as §1

AZD5363 = compound: C1CN(CCC1(C(=O)N[C@@H](CCO)C2=CC=C(C=C2)Cl)N)C3=NC=NC4=C3C=CN4 [AZD5363]; conditions: max 10 µM
In short: as §1

AZD1390 = compound: CC(C)n1c(=O)n(C)c2cnc3cc(F)c(-c4ccc(OCCCN5CCCCC5)nc4)cc3c21 [AZD1390]; conditions: max 0.3 µM
In short: as §1

Prexasertib = compound: COc1cccc(OCCCN)c1-c1cc(Nc2cnc(C#N)cn2)n[nH]1 [Prexasertib]; conditions: max 1 µM
In short: as §1

AZD4320 = compound: CN(CC[C@H](CSC1=CC=CC=C1)NC2=C(C=C(C=C2)S(=O)(=O)NC(=O)C3=CC=C(C=C3)N4CCC(CC4)[C@H](C5=CC=CC=C5C6=CC=C(C=C6)Cl)O)S(=O)(=O)C(F)(F)F)CCO [AZD4320]; conditions: max 1 µM
In short: as §1

AZD1775 = compound: C=CCn1c(=O)c2cnc(Nc3ccc(N4CCN(C)CC4)cc3)nc2n1-c1cccc(C(C)(C)O)n1 [AZD1775]; conditions: max 3 µM
In short: as §1

SRA737 = compound: N#Cc1cnc(Nc2cc(NC[C@H]3CNCCO3)c(C(F)(F)F)cn2)cn1 [SRA737]; conditions: max 10 µM
In short: as §1

MK-2206 = compound: NC1(c2ccc(-c3nc4ccn5c(=O)[nH]nc5c4cc3-c3ccccc3)cc2)CCC1 [MK-2206]; conditions: max 10 µM
In short: as §1

Lapatinib = compound: CS(=O)(=O)CCNCc1ccc(-c2ccc3ncnc(Nc4ccc(OCc5cccc(F)c5)c(Cl)c4)c3c2)o1 [Lapatinib]; conditions: max 10 µM
In short: as §1

AZD5153 = compound: COc1nnc2ccc(N3CCC(c4ccc(OCCN5CCN(C)C(=O)[C@H]5C)cc4)CC3)nn12 [AZD5153]; conditions: max 1 µM
In short: as §1

AZD7648 = compound: Cc1cc2ncnn2cc1Nc1ncc2c(n1)n(C1CCOCC1)c(=O)n2C [AZD7648]; conditions: max 10 µM
In short: as §1

AZD5991 = compound: Cc1c2c(nn1C)CSCc1cc(n(C)n1)CSc1cc(c3ccccc3c1)OCCCc1c(C(=O)O)n(C)c3c-2c(Cl)ccc13 [AZD5991]; conditions: max 1 µM
In short: as §1

Trametinib = compound: CC(=O)Nc1cccc(-n2c(=O)n(C3CC3)c(=O)c3c(Nc4ccc(I)cc4F)n(C)c(=O)c(C)c32)c1 [Trametinib]; conditions: max 1 µM
In short: as §1

Dasatinib = compound: CC1=C(C(=CC=C1)Cl)NC(=O)C2=CN=C(S2)NC3=CC(=NC(=N3)C)N4CCN(CC4)CCO [Dasatinib]; conditions: max 2 µM
In short: as §1

[1] = compound: O=C(Nc1ccc2[nH]nc(-c3ccncc3)c2c1)[C@@H]1CCN(CC(=O)N2CCN(c3ccc(-c4ncccn4)cc3)CC2)C1; conditions: max 5 µM
In short: as §1

Selumetinib = compound: Cn1cnc2c(F)c(Nc3ccc(Br)cc3Cl)c(C(=O)NOCCO)cc21 [Selumetinib]; conditions: max 10 µM
In short: as §1

AZD8186 = compound: C[C@@H](Nc1cc(F)cc(F)c1)c1cc(C(=O)N(C)C)cc2c(=O)cc(N3CCOCC3)oc12 [AZD8186]; conditions: max 10 µM
In short: as §1

Crizotinib = compound: C[C@@H](Oc1cc(-c2cnn(C3CCNCC3)c2)cnc1N)c1c(Cl)ccc(F)c1Cl [Crizotinib]; conditions: max 10 µM
In short: as §1

Palbociclib = compound: CC(=O)c1c(C)c2cnc(Nc3ccc(N4CCNCC4)cn3)nc2n(C2CCCC2)c1=O [Palbociclib]; conditions: max 10 µM
In short: as §1

Gemcitabine = compound: Nc1ccn([C@@H]2O[C@H](CO)[C@@H](O)C2(F)F)c(=O)n1 [Gemcitabine]; conditions: max 0.3 µM
In short: as §1

SG3199 = compound: CC1=CN2[C@@H](C1)C=NC3=CC(=C(C=C3C2=O)OC)OCCCCCOC4=C(C=C5C(=C4)N=C[C@@H]6CC(=CN6C5=O)C)OC [SG3199]; conditions: max 0.001 µM
In short: as §1

Olaparib = compound: O=C(c1cc(Cc2n[nH]c(=O)c3ccccc23)ccc1F)N1CCN(C(=O)C2CC2)CC1 [Olaparib]; conditions: max 10 µM
In short: as §1

Row | Cell Line | IC50, cell viability 72 h (Doxorubicin) [nM] | IC50, cell viability 72 h (Paclitaxel) [nM] | IC50, cell viability 72 h (Savolitinib) [nM] | IC50, cell viability 72 h (AZD0156) [nM] | IC50, cell viability 72 h (Alisertib) [µM] | IC50, cell viability 72 h (AZD2811) [nM] | IC50, cell viability 72 h (Taselisib) [nM] | IC50, cell viability 72 h (SN-38) [nM] | IC50, cell viability 72 h (Carboplatin) [µM] | IC50, cell viability 72 h (Etoposide) [µM] | IC50, cell viability 72 h (AZD6738) [µM] | IC50, cell viability 72 h (5-Fluorouracil) [µM] | IC50, cell viability 72 h (Venetoclax) [nM] | IC50, cell viability 72 h (Gefitinib) [µM] | IC50, cell viability 72 h (AZD5363) [µM] | IC50, cell viability 72 h (AZD1390) [nM] | IC50, cell viability 72 h (Prexasertib) [nM] | IC50, cell viability 72 h (AZD4320) [nM] | IC50, cell viability 72 h (AZD1775) [nM] | IC50, cell viability 72 h (SRA737) [µM] | IC50, cell viability 72 h (MK-2206) [µM] | IC50, cell viability 72 h (Lapatinib) [µM] | IC50, cell viability 72 h (AZD5153) [nM] | IC50, cell viability 72 h (AZD7648) [µM] | IC50, cell viability 72 h (AZD5991) [nM] | IC50, cell viability 72 h (Trametinib) [nM] | IC50, cell viability 72 h (Dasatinib) [nM] | IC50, cell viability 72 h [1] [µM] | IC50, cell viability 72 h (Selumetinib) [µM] | IC50, cell viability 72 h (AZD8186) [µM] | IC50, cell viability 72 h (Crizotinib) [µM] | IC50, cell viability 72 h (Palbociclib) [µM] | IC50, cell viability 72 h (Gemcitabine) [nM] | IC50, cell viability 72 h (SG3199) [nM] | IC50, cell viability 72 h (Olaparib) [µM]
1 | SJSA-1 (Osteosarcoma) | > 1000 | 79.9 | > 1000 | > 3000 | > 10 | > 1000 | 4810 | 87.9 | > 10 | > 10 | > 10 | > 20 | > 1000 | > 10 | > 10 | > 300 | 156 | > 1000 | > 3000 | > 10 | > 10 | > 10 | 533 | > 10 | > 1000 | > 1000 | > 2000 | > 5 | > 10 | > 10 | > 10 | > 10 | 82.1 | > 1 | > 10
2 | SK-GT-4 (Esophageal Adenocarcinoma) | > 1000 | 945 | > 1000 | > 3000 | > 10 | > 1000 | 911 | > 300 | > 10 | > 10 | > 10 | > 20 | > 1000 | > 10 | > 10 | > 300 | 70.7 | > 1000 | > 3000 | > 10 | > 10 | > 10 | > 1000 | > 10 | > 1000 | 90.1 | 1500 | 4.61 | 6.05 | > 10 | > 10 | > 10 | > 300 | > 1 | > 10
